From the supplement of paper PMC7840683
Where a name gives a salt, the structure may show the parent alone.

Tested on: HepaRG
Test: LDH release cytotoxicity, % of total lysis control; higher = more cytotoxic
Settings: 48 h
Summary of the method: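 Percent cytotoxicity was scaled between on-plate vehicle and total lysis controls, then averaged over duplicate wells. The cells were single-lot HepaRG on collagen I-coated 96-well plates, exposed for 48 h to eight-point half-log test chemical series topping at 100 µM in serum-free induction medium with 0.5% DMSO. Total lysis wells got 0.1% Triton X, and LDH in 50 µL spent medium was read as resorufin fluorescence (CytoTox-ONE, Tecan Safire).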

O=c1n(Cl)c(=O)n(Cl)c(=O)n1Cl [Symclosene]
Settings	LDH release cytotoxicity [%]
0.03162 µM	-1.22
0.1 µM	-0.82
0.3162278 µM	-0.254
1 µM	-0.453
3.16228 µM	0.284
10 µM	1.48
31.6228 µM	0.324
100 µM	2.44

CCC(=C(c1ccccc1)c1ccc(OCCN(C)C)cc1)c1ccccc1 [Tamoxifen citrate]
Settings	LDH release cytotoxicity [%]
0.02893 µM	-0.702
0.0915 µM	-0.863
0.289348 µM	-1.43
0.915 µM	-1.01
2.89348 µM	0.0489
9.15 µM	0.563
28.9348 µM	9.57
91.5 µM	88.7

CCC(=C(c1ccccc1)c1ccc(OCCN(C)C)cc1)c1ccccc1 [Tamoxifen]
Settings	LDH release cytotoxicity [%]
0.03162 µM	-1.09
0.1 µM	-0.968
0.3162278 µM	-1.82
1 µM	-2.26
3.16228 µM	-0.69
10 µM	-0.919
31.6228 µM	4.6
100 µM	79.7

O=C(OC[C@H]1O[C@@H](OC(=O)c2cc(O)c(O)c(OC(=O)c3cc(O)c(O)c(O)c3)c2)[C@H](OC(=O)c2cc(O)c(O)c(OC(=O)c3cc(O)c(O)c(O)c3)c2)[C@@H](OC(=O)c2cc(O)c(O)c(OC(=O)c3cc(O)c(O)c(O)c3)c2)[C@@H]1OC(=O)c1cc(O)c(O)c(OC(=O)c2cc(O)c(O)c(O)c2)c1)c1cc(O)c(O)c(OC(=O)c2cc(O)c(O)c(O)c2)c1 [Tannic acid]
Settings	LDH release cytotoxicity [%]
0.0096449 µM	-1.06
0.0305 µM	-1.19
0.0964495 µM	-2.39
0.305 µM	-2.34
0.964495 µM	-3.92
3.05 µM	-4.5
9.64495 µM	-0.0405
30.5 µM	5.317

CC(C)(C)C(O)(CCc1ccc(Cl)cc1)Cn1cncn1 (centres undefined) [Tebuconazole]
Settings	LDH release cytotoxicity [%]
0.03162 µM	-1.4
0.1 µM	-0.0947
0.3162278 µM	-1.08
1 µM	-1.1
3.16228 µM	-0.155
10 µM	-0.0217
31.6228 µM	1.4
100 µM	16.5

CCc1ccc(C(=O)NN(C(=O)c2cc(C)cc(C)c2)C(C)(C)C)cc1 [Tebufenozide]
Settings	LDH release cytotoxicity [%]
0.03162 µM	-0.939
0.1 µM	0.194
0.3162278 µM	-0.662
1 µM	-0.0494
3.16228 µM	-0.0064
10 µM	0.106
31.6228 µM	0.645
100 µM	11.3

CCc1nn(C)c(C(=O)NCc2ccc(C(C)(C)C)cc2)c1Cl [Tebufenpyrad]
Settings	LDH release cytotoxicity [%]
0.03162 µM	-1.57
0.1 µM	-1.25
0.3162278 µM	-2.38
1 µM	5.74
3.16228 µM	10.5
10 µM	15.5
31.6228 µM	23.2
100 µM	49.6

CCOP(=S)(Oc1cnc(C(C)(C)C)nc1)OC(C)C (centres undefined) [Tebupirimfos]
Settings	LDH release cytotoxicity [%]
0.031623 µM	0.203
0.1 µM	-1.67
0.316228 µM	-2.72
1 µM	-2.26
3.16228 µM	-2.34
10 µM	-3.02
31.6228 µM	-2.48
100 µM	-2.06

CNC(=O)N(C)c1nnc(C(C)(C)C)s1 [Tebuthiuron]
Settings	LDH release cytotoxicity [%]
0.03162 µM	-1.29
0.1 µM	-1.38
0.3162278 µM	-1.87
1 µM	-1.53
3.16228 µM	-0.935
10 µM	-1.24
31.6228 µM	-1.15
100 µM	0.223

Cc1c(F)c(F)c(COC(=O)C2C(C=C(Cl)C(F)(F)F)C2(C)C)c(F)c1F (centres undefined) [Tefluthrin]
Settings	LDH release cytotoxicity [%]
0.03162 µM	-0.665
0.1 µM	-0.785
0.3162278 µM	-1.49
1 µM	-1.6
3.16228 µM	-1.72
10 µM	-0.97
31.6228 µM	-0.478
100 µM	-0.883

CCC(=NOCC=CCl)C1C(=O)CC(C2CCOCC2)CC1=O (centres undefined) [Tepraloxydim]
Settings	LDH release cytotoxicity [%]
0.03162 µM	-1.86
0.1 µM	-1.65
0.3162278 µM	-1.97
1 µM	-1.72
3.16228 µM	-1.7
10 µM	-1.32
31.6228 µM	-0.75
100 µM	-0.617

CC1=NC(=O)N(C(C)(C)C)C(=O)C1Cl (centres undefined) [Terbacil]
Settings	LDH release cytotoxicity [%]
0.031623 µM	-1.65
0.1 µM	-3.63
0.316228 µM	-2.5
1 µM	-3.38
3.16228 µM	-2.68
10 µM	-2.77
31.6228 µM	-1.74
100 µM	2.1

CCOP(=S)(OCC)SCSC(C)(C)C [Terbufos]
Settings	LDH release cytotoxicity [%]
0.03162 µM	-1.37
0.1 µM	-0.712
0.3162278 µM	-1.15
1 µM	-1.03
3.16228 µM	-0.647
10 µM	-0.0424
31.6228 µM	-0.0818
100 µM	1.12

CCNc1nc(Cl)nc(NC(C)(C)C)n1 [Terbutylazine]
Settings	LDH release cytotoxicity [%]
0.03162 µM	0.3
0.1 µM	-1.75
0.3162278 µM	-0.304
1 µM	-1.25
3.16228 µM	-0.494
10 µM	-0.989
31.6228 µM	-0.271
100 µM	-0.0173

CCC(=O)OC1CCC2C3CCC4=CC(=O)CCC4(C)C3CCC12C (centres undefined) [Testosterone propionate]
Settings	LDH release cytotoxicity [%]
0.03162 µM	-1.39
0.1 µM	-0.545
0.3162278 µM	-1.1
1 µM	-1.85
3.16228 µM	-1.06
10 µM	-1.07
31.6228 µM	-0.42
100 µM	-0.461

O=C(O)Cc1cc(I)c(Oc2cc(I)c(O)c(I)c2)c(I)c1 [Tetrac]
Settings	LDH release cytotoxicity [%]
0.0211873 µM	0.0963
0.067 µM	-0.0291
0.211873 µM	0.0359
0.67 µM	0.258
2.11873 µM	1.04
6.7 µM	0.279
21.1873 µM	-0.194
67 µM	34

FC(F)C(F)(F)OCC(Cn1cncn1)c1ccc(Cl)cc1Cl (centres undefined) [Tetraconazole]
Settings	LDH release cytotoxicity [%]
0.0314647 µM	-0.665
0.0995 µM	-2.23
0.3146466 µM	-1.54
0.995 µM	-2.38
3.14647 µM	-2.48
9.95 µM	-2.1
31.4647 µM	1.5
99.5 µM	52.5

CCN(CC)C(=S)SSC(=S)N(CC)CC [Tetraethylthiuram disulfide]
Settings	LDH release cytotoxicity [%]
0.0322552 µM	-1.43
0.102 µM	-2.15
0.322552 µM	-2.5
1.02 µM	-2.4
3.2255232 µM	-1.91
10.2 µM	-1.62
32.2552 µM	-0.659
102 µM	3.01
